From patent publication US4968686A, “Acyclic pyrrolo [2,3-d]pyrimidine analogs as antiviral agents” (The Regents of The University of Michigan, priority 1989, dated 1990)

Key:
KB cells [1] = test: Growth of KB cells (population doubling times); assay type: cell-based, human; details: for Population Doubling time: KB cells, control 23 hr
Protocol: Population doubling times and cell viability were measured in uninfected HFF and/or KB cells. Cells were planted in replicate 6-well plastic tissue culture dishes or in 25 cm^2 flasks as described above in part 1. Following an incubation period during which cells attached to the substrate, medium was decanted, the cell sheet rinsed once with HBS, and fresh medium added. The medium consisted of MEM(E) with 1.1 gm NaHCO3 /liter and 10% fetal bovine or calf serum plus appropriate log or half-log concentrations of drug. After additional periods of incubation from 1 to 72 hours at 37° C., cells were harvested by means of 0.05% trypsin plus 0.02% EDTA in a HEPES-buffered salt solution. Cells were enumerated using either a Coulter counter or a hemocytometer and viability determining using trypsan blue dye exclusion.
In more extensive cytotoxicity testing, the halogenated compounds were tested for effects on the growth of KB cells. Populations doubling times were calculated from the logarithmic portions of growth curves and were as follows: […]

KB cells [2] = test: cells; assay type: cell-based, human; details: Homo sapiens; [3H]dThd incorporation, KB cells; read-out: I50 on [3H]dThd incorporation
Protocol: KB or HFF cells were planted using a Costar Transplate-96 (Costar, Cambridge, Mass.) in Costar 96-well cluster dishes at a concentration of 10,000 to 12,000 cells per well. Wells were suspended in 200 μl of medium [MDM(H) plus 0.7 gm/liter NaCHO3 supplemented with 10% calf serum] per well. After incubation of 16 to 24 hours at 37° C. in a humidified atmosphere of 4% CO2 in air, […] of medium was removed per well. One-hundred μl of medium with or without compounds in twice their final concentrations was added to each well using a Titertek Multichannel Pipette. Final concentrations of compounds ranged from 0.1 to 320 μM. Fifty μl of medium containing radioactive precursors also was added to each well to give a final concentration to 1 to 3 μCi/ml of labeled precursor. [^3 H]Thd was diluted with unlabeled dThd to give a final concentration of 3 or 6 μM.
Logarithmic cell growth occurred during this time with continual uptake of labeled precursors. At the end of the incubation period, cells were individually harvested from each well using a Skatron Cell harvester (Skatronh, Inc., Sterling, Va.). Cultures for individual wells were harvested onto filter paper and washed free of unincorporated label with nine sequential washes with 5% trichloroacetic acid, nine washes with water, and nine with ethanol using the Skatron unit. Filters were dried, circles from individual cultures were punched from the filter mat and placed into mini-vials. Liquid scintillation solution was added, and radioactivity determined in a Beckman model LS8100 liquid scintillation spectrometer. All samples were counted for 2.0 minutes each, with three rounds of counting. Counts per minute were determined following the application of statistical methods to eliminate count rates which fell outside distribution limits defined by Chauvenet's rejection criterion.
All analyses were performed in triplicate. That is, three culture wells were used per time point, radioactive precursor, and drug concentration in all experiments. Results from triplicate assays were converted to percent of control and plotted as log dose-response curves from which 50% inhibitor (I50) concentrations were interpolated. Three concentrations of vidarabine were included on all plates as a positive control.
Dose-response relationships were used to compare drug effects. These were constructed by linearly regressing the percent inhibition of parameters derived in the preceding sections against log drug concentrations. The 50% inhibitory (I50) concentrations were calculated from the regression lines using the methods described by Goldstein. See Goldstein, A., Biostatistics: An Introductory Text, MacMillan, N.Y., 1964, pp. 156-161. Along with the I50 concentration for visual cytotoxicity, the averaged I50 concentrations are compared to I50 concentrations for inhibition for HCMV or HSV-1 replication. Compounds for which the ratio of cytotoxicity I50 concentrations to antiviral I50 concentrations (in vitro therapeutic index) were greater than 10, were considered for further study.

[3] = comparison with UMJD 102 / UMJD 183

Structure (SMILES): Nc1ncnc2c1c(Br)cn2COC(CO)CO [UMJD 183, 4-amino-5-bromo-7-[(1,3-dihydroxy-2-propoxy)methyl]-pyrrolo[2,3-d]pyrimidine]
- duration of KB cell growth in presence of drug before slowing or stopping (KB cells [1]): up to 20 hours
- effect on KB cell growth (in words) (KB cells [1]; [3]): inhibited, but to a lesser extent
- KB cell growth for 50 hours (in words) (KB cells [1]; up to 32 μM, 50 hours): at a reduced rate

Structure (SMILES): OCC(CO)OCn1cc(Br)c2c(NO)ncnc21 [UMJD 299, 4-hydroxylamino-5-bromo-7-[(1,3-dihydroxy-2-propoxy)methyl]pyrrolo[2,3-d]pyrimidine]
- KB cell growth rate (in words) (KB cells [1]; 10 μM): nearly control rates
- effect on KB cell growth (in words) (KB cells [1]; [3]): considerably lesser effects on cell growth

Structure (SMILES): Nc1ncnc2c1c(Cl)cn2COC(CO)CO [UMJD 186, 4-amino-5-chloro-7-[(1,3-dihydroxy-2-propoxy)-methyl]pyrrolo[2,3-d]pyrimidine]
- IC50 (KB cells [2]): 28 µM

Structure (SMILES): Nc1ncnc2c1c(Br)cn2COCCO [UMJD 102, 4-Amino-5-bromo-7-(2-hydroxyethoxymethyl)pyrrolo[2,3-d]-pyrimidine]
- Population Doubling time (KB cells [1]; 0.1 μM): 30 h
- Population Doubling time (KB cells [1]; 1.0 μM): 43 h
- Population Doubling time (KB cells [1]; 10.0 μM): 84 h
- minimal effective concentration (KB cells [1]; Homo sapiens, KB, read-out: lowest concentration that inhibited growth of KB cells): 0.1 µM
- effect on KB cell growth (in words) (KB cells [1]; [3]): cytostatic
- IC50 (KB cells [2]): 0.13 µM

Structure (SMILES): Nc1ncnc2c1c(Cl)cn2COCCO [UMJD 100, 4-Amino-5-chloro-7-(2-hydroxyethoxymethyl)pyrrolo[2,3-d]-pyrimidine]
- Population Doubling time (KB cells [1]; 1.0 μM): 25 h
- Population Doubling time (KB cells [1]; 10.0 μM): 25 h
- effect on KB cell growth (in words) (KB cells [1]; 100 μM): only a minor extent
- Population Doubling time (KB cells [1]; 100.0 μM): 27 h
- IC50 (KB cells [2]): 0.82 µM

Structure (SMILES): Nc1ncnc2c1c(I)cn2COCCO [UMJD 104, 4-Amino-5-iodo-7-(2-hydroxyethoxymethyl)pyrrolo[2,3-d]-pyrimidine]
- Population Doubling time (KB cells [1]; 0.1 μM): 26 h
- Population Doubling time (KB cells [1]; 1.0 μM): 25 h
- Population Doubling time (KB cells [1]; 10.0 μM): 30 h
- IC50 (KB cells [2]): 1.2 µM
